Patent US8183239B2, “Substituted piperazines and piperidines as modulators of the neuropeptide Y2 receptor” (Janssen Pharmaceutica NV, priority 2005, dated 2012)
Read-outs that look alike come from different tables or passages of the source.

Target: T1, Y2 receptors (Homo sapiens, UniProt P49146)
T1 construct: endogenous in cells; host or cells: KAN-Ts cells (membranes)
T1 sequence (P49146 1-381): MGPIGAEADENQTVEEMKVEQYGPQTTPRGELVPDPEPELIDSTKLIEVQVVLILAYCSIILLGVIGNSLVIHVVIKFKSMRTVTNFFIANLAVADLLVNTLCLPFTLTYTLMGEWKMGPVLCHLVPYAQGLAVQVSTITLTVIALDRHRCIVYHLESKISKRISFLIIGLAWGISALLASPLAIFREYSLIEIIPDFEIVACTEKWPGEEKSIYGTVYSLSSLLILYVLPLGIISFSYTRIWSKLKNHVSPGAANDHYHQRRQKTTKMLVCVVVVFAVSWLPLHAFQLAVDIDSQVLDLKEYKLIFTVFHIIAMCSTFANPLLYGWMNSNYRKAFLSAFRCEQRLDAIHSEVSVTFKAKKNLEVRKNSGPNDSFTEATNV
Assay: Radioligand binding assay ([125I]PYY, KAN-Ts cell membranes)
Conditions: Table 1, [125I]PYY 80 pM, average of results
Description: Radioligand Binding Assay
KAN-Ts endogenously expressing Y2 receptors were used for the radioligand binding assay. Cells were grown to confluence on 150 cm^2 tissue culture plates, washed with phosphate-buffered saline (PBS), and scraped into 50 mL tubes. After centrifugation, the supernatant was aspirated, and the pellets frozen and stored at −80° C. Thawed pellets were homogenized with a polytron tissue grinder for 15 sec in 20 mM Tris-HCl, 5 mM EDTA. The homogenate was centrifuged at 800×g for 5 min and the collected supernatant was recentrifuged at 25000×g for 25 min. The resulting pellet was resuspended in binding buffer (20 mM HEPES, 120 mM NaCl, 0.22 mM KH2PO4, 1.3 mM CaCl2, 0.8 mM MgSO4). Membranes were incubated with [^125I]PYY (80 pM) in the presence or absence of test compound for 1 h at rt. The reaction was stopped by filtration through GF/C filter plates pre-soaked in 0.3% polyethylenimine and subsequently washed with Tris 50 mM, 5 mM EDTA buffer. Plates were dried for 1 h in a 55° C. oven, scintillation fluid was added and the radioactivity was counted in a Packard TopCount. Specific binding to the NPY receptor subtypes was determined by radioactivity that was bound in the presence of […]. Each binding experiment was repeated three to eight times, each in duplicate. IC50 values (i.e. concentration of unlabelled peptide or antagonist required to compete for 50% of specific binding to the radioligand) were calculated using the GraphPad Prism software (GraphPad Software Inc., San Diego Calif.) with a fit to a sigmoidal dose response curve. Data for compounds tested are presented in Tables 1 and 2 as an average of results obtained.

Structure (SMILES) | IC50 (read-out: IC50) [nM] | IC50 (IC50 (nM)) [nM]
CCNC(=O)C(c1ccccc1)N1CCN(c2ccc(NC(=O)N[C@@H](C)c3ccc(F)cc3)cc2F)CC1 (stereo partly drawn) [Example 28, N-Ethyl-2-[4-(2-fluoro-4-{3-[(S)-1-(4-fluoro-phenyl)-ethyl]-ureido}-phenyl)-piperazin-1-yl]-2-phenyl-acetamide] | 2900 | 
CCN(CC)C(=O)C(c1ccccc1)N1CCN(c2ccc(NC(=O)[C@H]3CCOC3)cc2F)CC1 (stereo partly drawn) [Example 29, (S)-Tetrahydro-furan-3-carboxylic acid {4-[4-(diethylcarbamoyl-phenyl-methyl)-piperazin-1-yl]-3-fluoro-phenyl}-amide] | 65 | 
CCN(CC)C(=O)C(c1ccccc1)N1CCN(c2ccc(N(CC)C(=O)N(CC)c3c(C)noc3C)cc2F)CC1 (stereo not drawn) [Example 30, 2-(4-{4-[3-(3,5-Dimethyl-isoxazol-4-yl)-1,3-diethyl-ureido]-2-fluoro-phenyl}-piperazin-1-yl)-N,N-diethyl-2-phenyl-acetamide] | 570 | 
CCN(CC)C(=O)C(c1ccccc1)N1CCN(c2ccc(C(=O)NCc3c(C)noc3C)cc2F)CC1 (stereo not drawn) [Example 31, 4-[4-(Diethylcarbamoyl-phenyl-methyl)-piperazin-1-yl]-N-(3,5-dimethyl-isoxazol-4-ylmethyl)-3-fluoro-benzamide] | 24 | 
CCC(CC)C(=O)N(c1ccccc1)C1CCN(c2ccc(NC(=O)Nc3c(C)noc3C)cc2F)CC1 [Example 32, N-(1-{4-[3-(3,5-Dimethyl-isoxazol-4-yl)-ureido]-2-fluoro-phenyl}-piperidin-4-yl)-2-ethyl-N-phenyl-butyramide] |  | 180
CCC(CC)C(=O)Nc1ccc(N2CCC(N(C(=O)C(CC)CC)c3ccccc3)CC2)c(F)c1 [Example 33, 2-Ethyl-N-{1-[4-(2-ethyl-butyrylamino)-2-fluoro-phenyl]-piperidin-4-yl}-N-phenyl-butyramide] |  | 180
CCC(CC)C(=O)Nc1ccc(N2CCN(C(C(=O)OC)c3cccc(F)c3)CC2)c(F)c1 (stereo not drawn) [Example 34, {4-[4-(2-Ethyl-butyrylamino)-2-fluoro-phenyl]-piperazin-1-yl}-(3-fluoro-phenyl)-acetic acid methyl ester] |  | 40
CCC(CC)C(=O)Nc1ccc(N2CCN(C(C(=O)N(CC)CC)c3cccc(F)c3)CC2)c(F)c1 (stereo not drawn) [Example 35, N-(4-{4-[Diethylcarbamoyl-(3-fluoro-phenyl)-methyl]-piperazin-1-yl}-3-fluoro-phenyl)-2-ethyl-butyramide] | 33 | 
CCC(CC)C(=O)Nc1ccc(N2CCN(C(C(=O)OC)c3ccc(C#N)cc3)CC2)c(F)c1 (stereo not drawn) [Example 36, (4-Cyano-phenyl)-{4-[4-(2-ethyl-butyrylamino)-2-fluoro-phenyl]-piperazin-1-yl}-acetic acid methyl ester] | 210 | 
CCC(CC)C(=O)Nc1ccc(N2CCN(C(C(=O)OC)c3cccc(Cl)c3)CC2)c(F)c1 (stereo not drawn) [Example 37, (3-Chloro-phenyl)-{4-[4-(2-ethyl-butyrylamino)-2-fluoro-phenyl]-piperazin-1-yl}-acetic acid methyl ester] | 56 | 
CCC(CC)C(=O)Nc1ccc(N2CCN(C(C(=O)OC)c3cccc(F)c3F)CC2)c(F)c1 (stereo not drawn) [Example 38, (2,3-Difluoro-phenyl)-{4-[4-(2-ethyl-butyrylamino)-2-fluoro-phenyl]-piperazin-1-yl}-acetic acid methyl ester] | 440 | 
COC(=O)C(c1ccccc1)N1CCN(c2ccc(NC(=O)c3ccccc3C)cc2Cl)CC1 (stereo not drawn) [Example 39, {4-[2-Chloro-4-(2-methyl-benzoylamino)-phenyl]-piperazin-1-yl}-phenyl-acetic acid methyl ester] | 800 | 
CCC(CC)C(=O)Nc1cc(F)c(N2CCN(C(C(=O)OC)c3ccccc3)CC2)c(F)c1 (stereo not drawn) [Example 40, {4-[4-(2-Ethyl-butyrylamino)-2,6-difluoro-phenyl]-piperazin-1-yl}-phenyl-acetic acid methyl ester] | 110 | 
CCC(CC)C(=O)Nc1cc(Cl)c(N2CCN(C(C(=O)OC)c3ccccc3)CC2)c(Cl)c1 (stereo not drawn) [Example 41, {4-[2,6-Dichloro-4-(2-ethyl-butyrylamino)-phenyl]-piperazin-1-yl}-phenyl-acetic acid methyl ester] | 77 | 
CCNC(=O)C(c1ccccc1)N1CCN(c2ccc(NC(=O)C(CC)CC)c(F)c2)CC1 (stereo not drawn) [Example 42, 2-Ethyl-N-{4-[4-(ethylcarbamoyl-phenyl-methyl)-piperazin-1-yl]-2-fluoro-phenyl}-butyramide] | 4830 | 
CCNC(=O)C(c1ccccc1)C1CCN(c2ccc(NC(=O)C(CC)CC)cc2C#N)CC1 (stereo not drawn) [Example 43, N-{3-Cyano-4-[4-(ethylcarbamoyl-phenyl-methyl)-piperidin-1-yl]-phenyl}-2-ethyl-butyramide] | 14 | 
CCC(CC)C(=O)Nc1ccc(N2CCN(C(C(=O)OC)c3ccccc3)CC2)c(F)c1 (stereo not drawn) [Example 44, {4-[4-(2-Ethyl-butyrylamino)-2-fluoro-phenyl]-piperazin-1-yl}-phenyl-acetic acid methyl ester] | 131 | 
COC(=O)C(c1ccccc1)N1CCN(c2ccc(NC(=O)C3Cc4ccccc43)cc2)CC1 (stereo not drawn) [Example 45, (4-{4-[(Bicyclo[4.2.0]octa-1 (6),2,4-triene-7-carbonyl)-amino]-phenyl}-piperazin-1-yl)-phenyl-acetic acid methyl ester] | 4000 | 
COC(=O)C(c1ccccc1)N1CCN(c2ccc(NC(=O)c3ccccc3I)cc2)CC1 (stereo not drawn) [Example 46, {4-[4-(2-Iodo-benzoylamino)-phenyl]-piperazin-1-yl}-phenyl-acetic acid methyl ester] | 6000 | 
COC(=O)C(c1ccccc1)N1CCN(c2ccc(NC(=O)c3ccccc3)cc2)CC1 (stereo not drawn) [Example 47, [4-(4-Benzoylamino-phenyl)-piperazin-1-yl]-phenyl-acetic acid methyl ester] | 10000 | 
COC(=O)C(c1ccccc1)N1CCN(c2ccc(NC(=O)c3ccccc3C3CCCCC3)cc2)CC1 (stereo not drawn) [Example 49, {4-[4-(2-Cyclohexyl-benzoylamino)-phenyl]-piperazin-1-yl}-phenyl-acetic acid methyl ester] | 1300 | 
COC(=O)C(c1ccccc1)N1CCN(c2ccc(NC(=O)c3ccccc3C)cc2)CC1 (stereo not drawn) [Example 50, {4-[4-(2-Methyl-benzoylamino)-phenyl]-piperazin-1-yl}-phenyl-acetic acid methyl ester] | 1800 | 
CCc1ccccc1C(=O)Nc1ccc(N2CCN(C(C(=O)OC)c3ccccc3)CC2)cc1 (stereo not drawn) [Example 51, {4-[4-(2-Ethyl-benzoylamino)-phenyl]-piperazin-1-yl}-phenyl-acetic acid methyl ester] | 1850 | 
COC(=O)C(c1ccccc1)N1CCN(c2ccc(NC(=O)c3ccccc3C(C)C)cc2)CC1 (stereo not drawn) [Example 52, {4-[4-(2-Isopropyl-benzoylamino)-phenyl]-piperazin-1-yl}-phenyl-acetic acid methyl ester] | 1400 | 
COC(=O)C(c1ccccc1)N1CCN(c2ccc(NC(=O)c3ccccc3Cl)cc2)CC1 (stereo not drawn) [Example 53, {4-[4-(2-Chloro-benzoylamino)-phenyl]-piperazin-1-yl}-phenyl-acetic acid methyl ester] | 12600 | 
COC(=O)C(c1ccccc1)N1CCN(c2ccc(NC(=O)c3ccccc3OC)cc2)CC1 (stereo not drawn) [Example 56, {4-[4-(2-Methoxy-benzoylamino)-phenyl]-piperazin-1-yl}-phenyl-acetic acid methyl ester] | 4000 | 
CNc1ccccc1C(=O)Nc1ccc(N2CCN(C(C(=O)OC)c3ccccc3)CC2)cc1 (stereo not drawn) [Example 58, {4-[4-(2-Methylamino-benzoylamino)-phenyl]-piperazin-1-yl}-phenyl-acetic acid methyl ester] | 3000 | 
COC(=O)C(c1ccccc1)N1CCN(c2ccc(NC(=O)C3CCCC3)cc2)CC1 (stereo not drawn) [Example 59, {4-[4-(Cyclopentanecarbonyl-amino)-phenyl]-piperazin-1-yl}-phenyl-acetic acid methyl ester] | 13100 | 
CCC(CC)C(=O)Nc1ccc(N2CCN(C(C(=O)OC)c3ccccc3)CC2)cc1 (stereo not drawn) [Example 60, {4-[4-(2-Ethyl-butyrylamino)-phenyl]-piperazin-1-yl}-phenyl-acetic acid methyl ester] | 527 | 
COC(=O)C(c1ccccc1)N1CCN(c2ccc(NC(=O)c3ccccc3)cc2F)CC1 (stereo not drawn) [Example 61, [4-(4-Benzoylamino-2-fluoro-phenyl)-piperazin-1-yl]-phenyl-acetic acid methyl ester] | 2500 | 
